Source: patent US10577363B2, “Substituted piperidine compounds” (EPIZYME, INC., priority 2014, dated 2020)
Counter-ions that a name gives are not always drawn.

What was measured:
[1] = target: T1, SMYD3 (Homo sapiens (Human), UniProt Q9H7B4); experiment: SMYD3 biochemical assay (SPA, 3H-SAM methylation of MEKK2 protein substrate)
Summary of the method: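 Tritium incorporation into GST-MEKK2 is counted by scintillation proximity after citric acid bead capture. Native human SMYD3 is preincubated with test compound for 30 min at room temperature at pH 8.0 (Tris-Cl, TCEP, BSG, Tween 20) before 3H-SAM and substrate are added; cold SAM at 100 uM final stops turnover.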

[2] = target: T1, SMYD3; experiment: SMYD3 cell assay (Trimethyl-MEKK2 In-Cell Western in 293T/17 cells); type: cell-based
Text: Trimethyl-MEKK2-in-Cell Western Assay
MEM/Glutamax medium, Optimem Reduced Serum medium, penicillin-streptomycin, 0.05% trypsin and 1×D-PBS were purchased from Life Technologies, Grand Island, N.Y., USA. PBS-10× was purchased from Ambion, Life Technologies, Grand Island, N.Y., USA. PBS with Tween 20 (PBST (10×)) was purchased from KPL, Gaithersburg, Md., USA. Tet System FBS-approved FBS US Source was purchased from Clontech, Mountain View, Calif., USA. Odyssey blocking buffer, 800CW goat anti-rabbit IgG (H+L) antibody, 680CW Goat anti-mouse IgG (H+L) and Licor Odyssey infrared scanner were purchased from Licor Biosciences, Lincoln, Nebr., USA. Tri-methyl-Lysine [A260]-MEKK2 antibody, MEKK2 and SMYD3 plasmids were made at Epizyme. Anti-flag monoclonal mouse antibody was purchased from Sigma, St. Louis, Mo., USA. Methanol was purchased from VWR, Franklin, Mass., USA. 10% Tween 20 was purchased from KPL, Inc., Gaithersburg, Md., USA. Fugene was purchased from Promega, Madison, Wis., USA. The Biotek ELx405 was purchased from BioTek, Winooski, Vt., USA. The multidrop combi was purchased from Thermo Scientific, Waltham, Mass., USA.
Cell Treatment, in Cell Western (ICW) for Detection of Trimethyl-Lysine-MEKK2 and MEKK2.
Plasmids were prepared for delivery to cells by first mixing 1350 μL Opti-MEM with Fugene (81 μL) in a sterile Eppendorf and incubated for five minutes at room temperature (RT). […] Entire volume of Opti-MEM/Fugene mixture was then added to a microfuge tube containing DNA plasmid, mixed and then incubated×15 minutes at RT. […] Medium was then removed, and cells were washed once with PBS in the flask. Trypsin 0.05% (3 mL) was added and cells incubated for three minutes. Room temperature MEM+10% Tet system FBS was added and cells were mixed gently, and counted using the Vi-cell. Cells were seeded at 100,000 cells/mL in 50 μL MEM/10% Tet FBS/Pen/Strep to a 384 well black/clear poly-D-lysine coated plate containing test agent diluted in DMSO. The final top concentration of test compound was 40 μM. […] Plates were incubated×30 minutes at RT in low-airflow area, followed by incubation at 37° C. under 5% CO2 for 24 hours. Medium was aspirated from all wells of assay plates prior to fixation and permeabilization with ice cold (−20° C.) methanol (90 μL/well) for ten minutes. Plates were rinsed with PBS three times on BioTek ELx405. PBS was removed with a final aspiration, and Odyssey blocking buffer (50 μL/well) was added to each well and incubated for one hour at RT. Primary antibody solution was prepared (anti-trimethyl-MEKK2 at 1:600 dilution plus mouse anti-flag antibody at 1:10,000 dilution in diluent (Odyssey Blocking buffer+0.1% Tween 20)) and 20 μL per well was dispensed using the Multidrop Combi. Assay plates were then sealed with foil, and incubated overnight at 4° C. Plates were washed five times with PBS-Tween (1×) on Biotek ELx405 and blotted on paper towel to remove excess reagent.
First, the ratio for each well was determined by:
Each plate included fourteen control wells of DMSO only treatment (Minimum Inhibition) as well as fourteen control wells for maximum inhibition (Background). The average of the ratio values for each control type was calculated and used to determine the percent inhibition for each test well in the plate. Reference compound was serially diluted two-fold in DMSO for a total of nine test concentrations, beginning at 40 μM.
Percent inhibition was calculated (below).
Non-linear regression curves were generated to calculate the IC50 and dose-response relationship using triplicate wells per concentration of compound.

[3] = read-out: SMYD3 Biochem IC50 (μM)*
[4] = Table 2A, read-out: SMYD3 Biochem IC50
[5] = Table 2A, read-out: SMYD3 Cell IC50
[6] = read-out: SMYD3 Cell IC50 (μM)*

T1 sequence (Q9H7B4 whole entry): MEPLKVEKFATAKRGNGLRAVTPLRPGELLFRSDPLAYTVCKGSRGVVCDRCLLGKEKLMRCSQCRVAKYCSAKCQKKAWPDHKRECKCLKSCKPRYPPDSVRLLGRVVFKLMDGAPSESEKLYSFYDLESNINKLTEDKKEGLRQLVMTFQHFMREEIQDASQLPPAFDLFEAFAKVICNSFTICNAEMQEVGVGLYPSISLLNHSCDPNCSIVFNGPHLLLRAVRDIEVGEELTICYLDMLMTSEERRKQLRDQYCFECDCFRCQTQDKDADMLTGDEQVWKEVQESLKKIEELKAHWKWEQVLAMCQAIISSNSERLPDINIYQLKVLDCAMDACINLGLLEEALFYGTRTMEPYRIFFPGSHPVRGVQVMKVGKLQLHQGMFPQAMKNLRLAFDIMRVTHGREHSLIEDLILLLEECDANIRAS

Compound | IC50 [1, 3] [µM] | IC50 [1, 4] [µM] | IC50 [2, 5] [µM] | IC50 [2, 6] [µM] | other results
NCCCS(=O)(=O)N1[C@@H]2CC[C@H]1C[C@@H](NC(=O)c1cc(C3CC3)on1)C2 [Cpd. No. 485, N-((1S,3r,5R)-8-(3-aminopropylsulfonyl)-8-aza-bicyclo[3.2.1]octan-3-yl)-5-cyclopropylisoxazole-3-carboxamide] | 0.00507 |  |  |  | IC50 ([2]; 293T/17 cells, read-out: SMYD3 Cell IC50 (μM)*): 0.129 µM
C[C@H]1C[C@@H](NC(=O)c2cc(C3CC3)on2)CCN1S(=O)(=O)CCCNCc1ccccc1 [Cpd. No. 500, N-((2S,4S)-1-(3-(benzylamino)propylsulfonyl)-2-methylpiperidin-4-yl)-5-cyclopropylisoxazole-3-carboxamide] |  |  |  |  | IC50 ([1]; Table 1A, IC50 values are an average of n = 1 to n = 50, read-out: SMYD3 Biochem IC50): 0.00813 µM; IC50 ([2]; Table 1A, IC50 values are an average of n = 1 to n = 50, read-out: SMYD3 Cell IC50): 0.106 µM
O=C(N[C@H]1C[C@H]2CC[C@@H](C1)N2S(=O)(=O)CC1CCN(CCCC(F)(F)F)CC1)c1cc(C2CC2)on1 [Cpd. No. 528, 5-cyclopropyl-N-[(1R,3r,5S)-8-([[1-(4,4,4-trifluorobutyl)piperidin-4-yl]methane]sulfonyl)-8-azabicyclo[3.2.1]octan-3-yl]-1,2-oxazole-3-carboxamide] |  | 0.0006 | 0.0231 |  | 
C[C@H]1C[C@@H](NC(=O)c2cc(C3CC3)on2)CCN1S(=O)(=O)N1CCC(N)CC1 [Cpd. No. 529, N-((2S,4S)-1-(4-aminopiperidin-1-ylsulfonyl)-2-methylpiperidin-4-yl)-5-cyclopropylisoxazole-3-carboxamide trifluoroacetic acid] |  | 0.0008 | 0.0152 |  | 
NC1CCN(S(=O)(=O)N2[C@@H]3CC[C@H]2C[C@@H](NC(=O)c2cc(C4CC4)on2)C3)CC1 [Cpd. No. 532, N-((1R,3r,5S)-8-(4-aminopiperidin-1-ylsulfonyl)-8-aza-bicyclo[3.2.1]octan-3-yl)-5-cyclopropylisoxazole-3-carboxamide hydrochloride] |  | 0.0009 | 0.0214 |  | 
C[C@H]1C[C@@H](NC(=O)c2cc(C3CC3)on2)CCN1S(=O)(=O)c1ccc(C(C)(C)N)cc1 [Cpd. No. 541, N-((2S,4S)-1-(4-(2-aminopropan-2-yl)phenylsulfonyl)-2-methylpiperidin-4-yl)-5-cyclopropylisoxazole-3-carboxamide] |  | 0.0014 | 0.0259 |  | 
O=C(N[C@H]1C[C@H]2CC[C@@H](C1)N2S(=O)(=O)CC1CCNCC1)c1cc(C2CC2)on1 [Cpd. No. 543, 5-cyclopropyl-N-((1R,3r,5S)-8-(piperidin-4-ylmethylsulfonyl)-8-aza-bicyclo [3.2.1]octan-3-yl) isoxazole-3-carboxamide] |  | 0.0018 | 0.0445 |  | 
O=C(N[C@H]1C[C@H]2CC[C@@H](C1)N2S(=O)(=O)N1CC2(CCNCC2)C1)c1cc(C2CC2)on1 [Cpd. No. 559, N-((1R,3r,5S)-8-(2,7-diazaspiro[3.5]nonan-2-ylsulfonyl)-8-azabicyclo[3.2.1]octan-3-yl)-5-cyclopropylisoxazole-3-carboxamide 2,2,2-trifluoroacetate] |  | 0.0047 | 0.0319 |  | 
CCc1cc(C(=O)N[C@H]2C[C@H]3CC[C@@H](C2)N3S(=O)(=O)CC2CCNCC2)no1 [Cpd. No. 562, 5-ethyl-N-((1R,3r,5S)-8-(piperidin-4-ylmethylsulfonyl)-8-aza-bicyclo[3.2.1]octan-3-yl)isoxazole-3-carboxamide] |  | 0.0052 | 0.0615 |  | 
CN1CCC(CS(=O)(=O)N2[C@@H]3CC[C@H]2C[C@@H](NC(=O)c2cc(C4CC4)on2)C3)CC1 [Cpd. No. 770, 5-cyclopropyl-N-((1S,3r,5R)-8-((l-methylpiperidin-4-yl)methylsulfonyl)-8-aza-bicyclo[3.2.1]octan-3-yl)isoxazole-3-carboxamide] |  |  |  |  | IC50 ([1]; read-out: SMYD3 Biochem IC50*): 0.00088 µM; IC50 ([2]; read-out: SMYD3 Cell IC50*): 0.0192 µM
N[C@@H](Cc1ccc(O)c(I)c1)C(=O)N1CCC(NC(=O)c2cc(C3CC3)on2)CC1 [compound 5, (S)-N-(1-(2-amino-3-(4-hydroxy-3-iodophenyl)propanoyl)piperidin-4-yl)-5-cyclopropylisoxazole-3-carboxamide] | 0.116 |  |  | 0.809 | 
NC[C@@H](Cc1ccccc1)C(=O)N1CCC(NC(=O)c2cc(C3CC3)on2)CC1 [compound 10, (R)-N-(1-(3-amino-2-benzylpropanoyl)piperidin-4-yl)-5-cyclopropylisoxazole-3-carboxamide] | 0.319 |  |  | 1.82 | 
NC[C@H](Cc1ccc(O)c(I)c1)C(=O)N1CCC(NC(=O)c2cc(C3CC3)on2)CC1 [compound 29, (S)-N-(1-(3-amino-2-(4-hydroxy-3-iodobenzyl)propanoyl)piperidin-4-yl)-5-cyclopropylisoxazole-3-carboxamide] | 0.0423 |  |  | 1.1 | 
CC1CN(S(=O)(=O)CCCN)CCC1NC(=O)c1cc(C2CC2)on1 (stereo not drawn) [compound 46, N-(1-((3-aminopropyl)sulfonyl)-3-methylpiperidin-4-yl)-5-cyclopropylisoxazole-3-carboxamide] | 0.119 |  |  |  | IC50 [2]: 1.02 µM
C[C@H]1C[C@H](NC(=O)c2cc(C3CC3)on2)CCN1C(=O)CC1CCNCC1 [compound 56, 5-cyclopropyl-N-((2S,4R)-2-methyl-1-(2-(piperidin-4-yl)acetyl)piperidin-4-yl)isoxazole-3-carboxamide] | 0.172 |  |  | 3.18 | 
C[C@@H]1C[C@H](NC(=O)c2cc(C3CC3)on2)CCN1C(=O)[C@H]1CC[C@H](N)CC1 [compound 57, N-((2R,4R)-1-((1r,4R)-4-aminocyclohexane-1-carbonyl)-2-methylpiperidin-4-yl)-5-cyclopropylisoxazole-3-carboxamide] | 0.0716 |  |  | 0.947 | 
NC[C@@H](Cc1ccc(O)c(Cl)c1)C(=O)N1CCC(NC(=O)c2cc(C3CC3)on2)CC1 [compound 63, (R)-N-(1-(3-amino-2-(3-chloro-4-hydroxybenzyl)propanoyl)piperidin-4-yl)-5-cyclopropylisoxazole-3-carboxamide] | 0.139 |  |  | 1.44 | 
C[C@@H]1CN(S(=O)(=O)CCN)CCC1NC(=O)c1cc(C2CC2)on1 (stereo partly drawn) [compound 65, N-((3R)-1-((2-aminoethyl)sulfonyl)-3-methylpiperidin-4-yl)-5-cyclopropylisoxazole-3-carboxamide] | 0.205 |  |  | 1.05 | 
C[C@H]1CN(S(=O)(=O)CCN)CCC1NC(=O)c1cc(C2CC2)on1 (stereo partly drawn) [compound 66, N-((3S)-1-((2-aminoethyl)sulfonyl)-3-methylpiperidin-4-yl)-5-cyclopropylisoxazole-3-carboxamide] | 0.59 |  |  | 3.72 | 
C[C@@H]1CC(NC(=O)c2cc(C3CC3)on2)CCN1S(=O)(=O)CCN (stereo partly drawn) [compound 77, N-((2R)-1-((2-aminoethyl)sulfonyl)-2-methylpiperidin-4-yl)-5-cyclopropylisoxazole-3-carboxamide] | 0.633 |  |  | 2.91 | 
C[C@H]1CC(NC(=O)c2cc(C3CC3)on2)CCN1S(=O)(=O)CCN (stereo partly drawn) [compound 78, N-((2S)-1-((2-aminoethyl)sulfonyl)-2-methylpiperidin-4-yl)-5-cyclopropylisoxazole-3-carboxamide] | 0.155 |  |  | 0.792 | 
